Results as given in ChEMBL document CHEMBL1201862, “PubChem BioAssay data set” (2004).
The source made the active and inactive calls. Rule as the data show it: actives have a measured IC50 and inactives only a lower limit.

Target: Envelope glycoprotein gp160 (Human immunodeficiency virus 1, UniProt Q6QLK5)
Experiment: cell-free HIV fusion peptide-binding blockers – biochemical, uHTS, fluorescence dequenching, […] (AID 1986)

Chain of Envelope glycoprotein gp160 (Q6QLK5 whole entry, the tested form may be a part): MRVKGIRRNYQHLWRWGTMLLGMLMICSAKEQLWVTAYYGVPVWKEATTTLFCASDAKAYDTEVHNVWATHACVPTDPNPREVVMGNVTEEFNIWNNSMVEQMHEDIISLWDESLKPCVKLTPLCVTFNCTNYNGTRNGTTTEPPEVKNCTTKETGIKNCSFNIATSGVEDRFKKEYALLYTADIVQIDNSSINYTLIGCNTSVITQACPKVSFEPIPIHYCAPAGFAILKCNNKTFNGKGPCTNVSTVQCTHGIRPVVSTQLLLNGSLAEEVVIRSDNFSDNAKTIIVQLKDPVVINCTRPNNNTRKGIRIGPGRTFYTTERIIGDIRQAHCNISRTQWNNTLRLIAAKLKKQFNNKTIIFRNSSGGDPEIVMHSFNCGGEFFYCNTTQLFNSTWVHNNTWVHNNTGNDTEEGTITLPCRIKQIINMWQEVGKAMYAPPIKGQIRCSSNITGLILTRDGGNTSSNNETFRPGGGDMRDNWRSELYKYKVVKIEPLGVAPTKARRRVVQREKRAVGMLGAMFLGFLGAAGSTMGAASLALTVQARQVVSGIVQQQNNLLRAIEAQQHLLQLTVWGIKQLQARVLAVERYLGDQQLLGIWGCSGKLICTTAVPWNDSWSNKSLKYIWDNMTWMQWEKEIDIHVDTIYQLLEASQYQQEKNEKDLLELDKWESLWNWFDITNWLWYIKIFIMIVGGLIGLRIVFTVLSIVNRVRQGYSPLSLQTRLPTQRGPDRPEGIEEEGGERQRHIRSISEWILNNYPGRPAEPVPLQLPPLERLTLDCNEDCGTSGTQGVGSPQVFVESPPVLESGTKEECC

In the case of `COc1cc(/C=C(\C#N)c2nc3ccccc3s2)cc([N+](=O)[O-])c1O`, the IC50 is reported as 8.88 µM (active).
